Test results from the NIST ThermoML archive (doi:10.1021/je400159e).

How the values were obtained:
[1] = Crystal; Adiabatic calorimetry
[2] = Molar enthalpy of transition or fusion; conditions: Crystal; Adiabatic calorimetry
[3] = molar heat capacity at constant pressure; conditions: 101.33 kPa, Vacuum adiabatic calorimetry

CCOC(=O)C(NC(C)=O)C(=O)OCC [diethyl 2-acetamidomalonate]
Conditions	Molar enthalpy of transition or fusion [kcal/mol]	Triple point temperature [K]
[1]	–	368.72
[2]	8.198	–

[3]
Conditions	molar heat capacity at constant pressure [J/K/mol]
78.24 K, Crystal	110.9
80 K, Crystal	117.6
80.92 K, Crystal	118.8
84.07 K, Crystal	125.4
85 K, Crystal	125.6
87.1 K, Crystal	128.6
90 K, Crystal	132.8
90.03 K, Crystal	132.3
92.96 K, Crystal	137.3
95 K, Crystal	139.4
95.86 K, Crystal	140.8
98.72 K, Crystal	143.3
100 K, Crystal	145.5
102.57 K, Crystal	147.5
105 K, Crystal	151
106.44 K, Crystal	151.4
109.33 K, Crystal	154.8
110 K, Crystal	156.2
112.24 K, Crystal	157.6
115 K, Crystal	161
115.17 K, Crystal	161.2
118.1 K, Crystal	164.5
120 K, Crystal	165.6
121.02 K, Crystal	167.2
123.94 K, Crystal	169.6
125 K, Crystal	170
126.84 K, Crystal	172.1
129.74 K, Crystal	174.4
130 K, Crystal	174.2
132.64 K, Crystal	176.4
135 K, Crystal	178.3
135.54 K, Crystal	179.1
138.43 K, Crystal	181.8
140 K, Crystal	182.4
141.33 K, Crystal	184
144.22 K, Crystal	186.7
145 K, Crystal	186.3
147.11 K, Crystal	188.2
149.99 K, Crystal	190.2
150 K, Crystal	190.2
153.39 K, Crystal	192.9
155 K, Crystal	194.1
157.07 K, Crystal	195.6
160 K, Crystal	197.9
160.22 K, Crystal	198.3
163.12 K, Crystal	200.2
165 K, Crystal	201.8
166.04 K, Crystal	202.4
168.95 K, Crystal	204.2
170 K, Crystal	205.6
171.83 K, Crystal	206.6
174.74 K, Crystal	208.8
175 K, Crystal	209.5
177.68 K, Crystal	211
180 K, Crystal	213.4
180.6 K, Crystal	213.6
183.5 K, Crystal	216.3
185 K, Crystal	217.3
186.43 K, Crystal	218.3
189.39 K, Crystal	219.7
190 K, Crystal	221.2
192.32 K, Crystal	222.4
195 K, Crystal	225.1
195.24 K, Crystal	225
198.14 K, Crystal	227.4
200 K, Crystal	229
201.06 K, Crystal	229.4
204.69 K, Crystal	233
205 K, Crystal	232.9
208.24 K, Crystal	235.4
210 K, Crystal	236.8
211.12 K, Crystal	237.9
214.07 K, Crystal	239.9
215 K, Crystal	240.8
216.99 K, Crystal	243.1
219.9 K, Crystal	244
220 K, Crystal	244.7
222.8 K, Crystal	246.7
225 K, Crystal	248.7
225.75 K, Crystal	249.4
228.73 K, Crystal	251.2
230 K, Crystal	252.7
231.68 K, Crystal	254.7
234.64 K, Crystal	256.9
235 K, Crystal	256.7
237.58 K, Crystal	259.4
240 K, Crystal	260.7
240.49 K, Crystal	260.9
244 K, Crystal	264.3
245 K, Crystal	264.8
247.5 K, Crystal	267.7
250 K, Crystal	268.8
250.46 K, Crystal	269.6
253.49 K, Crystal	272.7
255 K, Crystal	273
256.52 K, Crystal	275
259.52 K, Crystal	277.5
260 K, Crystal	277.2
262.52 K, Crystal	280.1
265 K, Crystal	281.4
265.5 K, Crystal	282.4
268.47 K, Crystal	283.8
270 K, Crystal	285.7
271.42 K, Crystal	286.1
274.37 K, Crystal	289.5
275 K, Crystal	290.2
277.31 K, Crystal	290.7
280 K, Crystal	294.7
280.26 K, Crystal	293.6
283.28 K, Crystal	297.4
285 K, Crystal	299.3
286.35 K, Crystal	300.4
289.39 K, Crystal	302.9
290 K, Crystal	304.1
292.4 K, Crystal	306.6
295 K, Crystal	309
295.4 K, Crystal	308.5
298.15 K, Crystal	312.2
298.4 K, Crystal	312
300 K, Crystal	314.1
301.4 K, Crystal	314.7
304.39 K, Crystal	318.4
305 K, Crystal	319.3
307.37 K, Crystal	321.4
310 K, Crystal	324.7
310.35 K, Crystal	325.7
313.32 K, Crystal	329.7
315 K, Crystal	330.4
316.34 K, Crystal	332.9
319.44 K, Crystal	336.2
320 K, Crystal	336.2
322.53 K, Crystal	340.6
325 K, Crystal	342.2
325.61 K, Crystal	343
328.68 K, Crystal	346.8
330 K, Crystal	348.5
331.74 K, Crystal	350.7
334.79 K, Crystal	354.3
335 K, Crystal	355
337.83 K, Crystal	358
340 K, Crystal	361.7
340.85 K, Crystal	362.6
343.87 K, Crystal	367.1
345 K, Crystal	368.6
372.62 K, Liquid	463.3
375 K, Liquid	465
375.92 K, Liquid	465.4
379.02 K, Liquid	467.3
380 K, Liquid	467.7
382.13 K, Liquid	468.9
385 K, Liquid	470.4
385.23 K, Liquid	470.4
388.37 K, Liquid	472.1
390 K, Liquid	472.9
391.51 K, Liquid	473.6
394.65 K, Liquid	475.2
395 K, Liquid	475.3
